Our source for the CC50 values is patent US20240254118A1, “PRMT5 INHIBITORS AND USES THEREOF” (Gilead Sciences, Inc., priority 2022, published 2024).

The assay has as its system HCT116 MTAP-deleted cells. Briefly: Cell viability assay (CellTiter-Glo, 7 days), HCT116 MTAP-deleted. Conditions: Homo sapiens, HCT-116, 168 h.

Molecules are shown by their SMILES.

Consider `CC(=O)N(C)N(Cc1ccc(-c2ccn(C(F)(F)F)n2)nc1F)C(=O)c1ccc2nc(N)c3cnn(C)c3c2c1` [Example 346, N′-acetyl-4-amino-N-((2-fluoro-6-(1-(trifluoromethyl)-1H-pyrazol-3-yl)pyridin-3-yl)methyl)-N′,1-dimethyl-1H-pyrazolo[4,3-c]quinoline-8-carbohydrazide], for which the CC50 (usually the concentration that lowers cell viability or growth by half) is below 100 nM.

`CC(=O)N(C)N(Cc1ccc(-c2cnn(C(F)(F)F)c2)nc1F)C(=O)c1ccc2nc(N)c3cnn(C)c3c2c1` [Example 347, N′-acetyl-4-amino-N-((2-fluoro-6-(1-(trifluoromethyl)-1H-pyrazol-4-yl)pyridin-3-yl)methyl)-N′,1-dimethyl-1H-pyrazolo[4,3-c]quinoline-8-carbohydrazide] had a CC50 below 100 nM.

Regarding `CC(=O)N(C)N(Cc1ccc(-c2cnn(C(F)F)c2)nc1F)C(=O)c1ccc2nc(N)c3cnn(C)c3c2c1` [Example 348, N′-acetyl-4-amino-N-((6-(1-(difluoromethyl)-1H-pyrazol-4-yl)-2-fluoropyridin-3-yl)methyl)-N′,1-dimethyl-1H-pyrazolo[4,3-c]quinoline-8-carbohydrazide], the CC50 is below 100 nM.

`CN(C(=O)C1CC1)N(Cc1ccc(-c2cnn(C(F)F)c2)cn1)C(=O)c1ccc2nc(N)c3cnn(C)c3c2c1` [Example 353, 4-amino-N′-(cyclopropanecarbonyl)-N-((5-(1-(difluoromethyl)-1H-pyrazol-4-yl)pyridin-2-yl)methyl)-N′,1-dimethyl-1H-pyrazolo[4,3-c]quinoline-8-carbohydrazide]: the CC50 is below 100 nM.

Turning to `CN(C(=O)C1CC1)N(Cc1ccc(Br)cn1)C(=O)c1ccc2nc(N)c3cnn(C)c3c2c1` [Example 354, 4-amino-N-((5-bromopyridin-2-yl)methyl)-N′-(cyclopropanecarbonyl)-N′,1-dimethyl-1H-pyrazolo[4,3-c]quinoline-8-carbohydrazide], the CC50 was below 100 nM.

Regarding `CN(C(=O)C1CC1)N(Cc1ccc(-c2cncs2)cn1)C(=O)c1ccc2nc(N)c3cnn(C)c3c2c1` [Example 355, 4-amino-N′-(cyclopropanecarbonyl)-N′,1-dimethyl-N-((5-(thiazol-5-yl)pyridin-2-yl)methyl)-1H-pyrazolo[4,3-c]quinoline-8-carbohydrazide], the half-maximal cytotoxic concentration (CC50) is below 100 nM.

In turn, `CN(C(=O)C1CC1)N(Cc1ccc(-c2cnn(C)c2)cn1)C(=O)c1ccc2nc(N)c3cnn(C)c3c2c1` [Example 356, 4-amino-N′-(cyclopropanecarbonyl)-N′,1-dimethyl-N-((5-(1-methyl-1H-pyrazol-4-yl)pyridin-2-yl)methyl)-1H-pyrazolo[4,3-c]quinoline-8-carbohydrazide] registered a CC50 of 100 to 1000 nM.

With `CN(C(=O)C1CC1)N(Cc1ccc(C2CC2)cn1)C(=O)c1ccc2nc(N)c3cnn(C)c3c2c1` [Example 357, 4-amino-N′-(cyclopropanecarbonyl)-N-((5-cyclopropylpyridin-2-yl)methyl)-N′,1-dimethyl-1H-pyrazolo[4,3-c]quinoline-8-carbohydrazide], the CC50 is below 100 nM.

Compound `CN(C(=O)C1CC1(F)F)N(Cc1ccc(C(F)(F)F)cn1)C(=O)c1ccc2nc(N)c3cnn(C)c3c2c1` (centres unmarked) [Example 358, 4-amino-N′-(2,2-difluorocyclopropane-1-carbonyl)-N′,1-dimethyl-N-((5-(trifluoromethyl)pyridin-2-yl)methyl)-1H-pyrazolo[4,3-c]quinoline-8-carbohydrazide] displayed a CC50 below 100 nM.

Regarding `CC(=O)N(C)N(Cc1c(F)cc(Cl)cc1F)C(=O)c1ccc2nc(N)c3cnn(C)c3c2c1` [Example 367, N′-acetyl-4-amino-N-(4-chloro-2,6-difluorobenzyl)-N′,1-dimethyl-1H-pyrazolo[4,3-c]quinoline-8-carbohydrazide], the CC50 was below 100 nM.

Compound `CC(=O)N(C)N(Cc1cc(F)c(C(F)(F)F)cc1F)C(=O)c1ccc2nc(N)c3cnn(C)c3c2c1` [Example 368, N′-acetyl-4-amino-N-(2,5-difluoro-4-(trifluoromethyl)benzyl)-N′, 1-dimethyl-1H-pyrazolo[4,3-c]quinoline-8-carbohydrazide] had a CC50 below 100 nM.

As to `CN(C(=O)C1CC1)N(Cc1ccc(-c2ccc(C(F)(F)F)s2)cn1)C(=O)c1ccc2nc(N)c3cnn(C)c3c2c1` [Example 369, 4-amino-N′-(cyclopropanecarbonyl)-N′,1-dimethyl-N-((5-(5-(trifluoromethyl)thiophen-2-yl)pyridin-2-yl)methyl)-1H-pyrazolo[4,3-c]quinoline-8-carbohydrazide], the CC50 is below 100 nM.

The compound `CN(C(=O)C1CC1)N(Cc1ccc(C(F)F)cn1)C(=O)c1ccc2nc(N)c3cnn(C)c3c2c1` [Example 370, 4-amino-N′-(cyclopropanecarbonyl)-N-((5-(difluoromethyl)pyridin-2-yl)methyl)-N′,1-dimethyl-1H-pyrazolo[4,3-c]quinoline-8-carbohydrazide] yielded a CC50 below 100 nM.

As for `CC(=O)N(C)N(Cc1ccc(C(F)(F)F)c(F)c1F)C(=O)c1ccc2nc(N)c3cnn(C)c3c2c1` [Example 371, N′-acetyl-4-amino-N-(2,3-difluoro-4-(trifluoromethyl)benzyl)-N′,1-dimethyl-1H-pyrazolo[4,3-c]quinoline-8-carbohydrazide], the CC50 was below 100 nM.

`CC(=O)N(C)N(Cc1ccc(-c2cnn(C)c2)cc1F)C(=O)c1ccc2nc(N)c3cnn(C)c3c2c1` [Example 373, N′-acetyl-4-amino-N-[[2-fluoro-4-(1-methylpyrazol-4-yl)phenyl]methyl]-N′,1-dimethyl-pyrazolo[4,3-c]quinoline-8-carbohydrazide] came in with a CC50 below 100 nM.

The compound `CC(=O)N(C)N(Cc1ccc(-c2cnn(C(F)(F)F)c2)cc1Cl)C(=O)c1ccc2nc(N)c3cnn(C)c3c2c1` [Example 377, N′-acetyl-4-amino-N-[[2-chloro-4-[1-(trifluoromethyl)pyrazol-4-yl]phenyl]methyl]-N′,1-dimethyl-pyrazolo[4,3-c]quinoline-8-carbohydrazide] gave a CC50 below 100 nM.

`CC(=O)N(C)N(Cc1c(F)cc(-c2cnn(C(F)(F)F)c2)cc1F)C(=O)c1ccc2nc(N)c3cnn(C)c3c2c1` [Example 378, N′-acetyl-4-amino-N-[[2,6-difluoro-4-[1-(trifluoromethyl)pyrazol-4-yl]phenyl]methyl]-N′,1-dimethyl-pyrazolo[4,3-c]quinoline-8-carbohydrazide]: the CC50 was below 100 nM.

`CC(=O)N(C)N(Cc1c(F)cc(-c2cnn(C(F)F)c2)cc1F)C(=O)c1ccc2nc(N)c3cnn(C)c3c2c1` [Example 379, N′-acetyl-4-amino-N-[[4-[1-(difluoromethyl)pyrazol-4-yl]-2,6-difluoro-phenyl]methyl]-N′,1-dimethyl-pyrazolo[4,3-c]quinoline-8-carbohydrazide] registered a CC50 below 100 nM.

In turn, `CC(=O)N(C)N(Cc1c(F)cc(-c2cnn(C)c2)cc1F)C(=O)c1ccc2nc(N)c3cnn(C)c3c2c1` [Example 380, N′-acetyl-4-amino-N-[[2,6-difluoro-4-(1-methylpyrazol-4-yl)phenyl]methyl]-N′,1-dimethyl-pyrazolo[4,3-c]quinoline-8-carbohydrazide] gave a CC50 below 100 nM.

Turning to `CC(=O)N(C)N(Cc1c(F)cc(-c2cnn(C3CC3)c2)cc1F)C(=O)c1ccc2nc(N)c3cnn(C)c3c2c1` [Example 381, N′-acetyl-4-amino-N-[[4-(1-cyclopropylpyrazol-4-yl)-2,6-difluoro-phenyl]methyl]-N′,1-dimethyl-pyrazolo[4,3-c]quinoline-8-carbohydrazide], the CC50 was below 100 nM.
